Data on ten compounds can be found in patent US8211900B2, “DHFR enzyme inhibitors” (Chroma Therapeutics Ltd., priority 2006, dated 2012).

The test system of experiment [1] is HCT-116. The experiment in a line: Cell inhibition assay (WST-1 cell viability), HCT-116. The class given is cell-based. Particulars: Homo sapiens, HCT-116 cells, 72-96 h, read-out: Inhibition cell proliferation HCT-116. How it is done: (§1) Cancer cell lines (U937, HCT-116, THP-1 and HUT78) growing in log phase were harvested and seeded at 1000-2000 cells/well (100 μl final volume) into 96-well tissue culture plates. Following 24 h of growth cells were treated with compound.
(§2) Plates were then re-incubated for a further 72-96 h before a WST-1 cell viability assay was conducted according to the suppliers (Roche Applied Science) instructions. Data were expressed as a percentage inhibition of the control, measured in the absence of inhibitor, as follows:— % inhibition=100−((S^i/S^o)×100) where S^i is the signal in the presence of inhibitor and S^o is the signal in the presence of DMSO. Dose response curves were generated from 8 concentrations (top final concentration 10 μM, with 3-fold dilutions), using 6 replicates. IC50 values were determined by non-linear regression analysis, after fitting the results to the equation for sigmoidal dose response with variable slope (% activity against log concentration of compound), using Graphpad Prism software. IC50 values were allocated to one of the three ranges as follows: • Range A IC %)<100 nM • Range B: 100 nM<IC50<1000 nM • Range C: IC50>1000 nM
For orientation: Tetrazolium assays rely on reduction of a dye to a coloured formazan, in cell work by metabolically active cells.

Experiment [2] concerns HUT78. Description: Cell inhibition assay (WST-1 cell viability), HUT78. The class given is cell-based. As to conditions: Homo sapiens, HUT78 cells, 72-96 h, read-out: Inhibition cell proliferation HUT. The procedure: as §1, §2
In experiment [3] the target is T1, recombinant human DHFR (Homo sapiens, UniProt P00374).
T1 construct: purchased Sigma CS0340
T1 sequence (P00374 1-187): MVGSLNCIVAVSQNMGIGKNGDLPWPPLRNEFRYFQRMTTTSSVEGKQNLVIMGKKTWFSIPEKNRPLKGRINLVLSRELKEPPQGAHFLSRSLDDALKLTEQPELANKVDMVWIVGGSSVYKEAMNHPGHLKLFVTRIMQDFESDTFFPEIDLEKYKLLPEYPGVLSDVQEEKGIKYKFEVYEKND
Description: DHFR enzyme inhibition assay (Sigma kit CS0340). As to conditions: NADPH 60 μM, dihydrofolic acid 50 μM. In kind it is biochemical. The procedure: The ability of compounds to inhibit DHFR activity was measured in an assay based on the ability of DHFR to catalyse the reversible NADPH-dependent reduction of dihydrofolic acid to tetrahydrofolic acid using a Sigma kit (Catalogue number CS0340). This uses proprietary assay buffer and recombinant human DHFR at 7.5×10^−4 Unit per reaction, NADPH at 60 μM and dihydrofolic acid at 50 μM. The reaction was followed by monitoring the decrease in absorbance at 340 nm, for a 2 minute period, at room temperature, and the enzyme activity was calculated as the rate of decrease in absorbance. Enzyme activity, in the presence of inhibitor, was expressed as a percentage of inhibitor-free activity and the inhibitor IC50 was determined from a sigmoidal dose response curve using XLfit software (% activity against log concentration of compound). Each sample was run in triplicate and each dose response curve was composed of 10 dilutions of the inhibitor.

The test system of experiment [4] is U937. Description: Cell inhibition assay (WST-1 cell viability), U937. In kind it is cell-based. Particulars: Homo sapiens, U-937, U937 cells, 72-96 h, read-out: Inhibition cell proliferation U937. The procedure: as §1, §2
For experiment [5], the system named is THP-1. Description: Cell inhibition assay (WST-1 cell viability), THP-1. The class given is cell-based. Particulars: Homo sapiens, THP-1 cells, 72-96 h, read-out: Inhibition cell proliferation THP-1. The procedure:
as §1, §2

Regarding `COc1cc(NCc2ccc3nc(N)nc(N)c3c2C)cc(OC)c1OCC(=O)N[C@@H](CC(C)C)C(=O)OC1CCCC1` [Example 5, Cyclopentyl N-[(4-{[(2,4-diamino-5-methylquinazolin-6-yl)methyl]amino}-2,6-dimethoxyphenoxy)acetyl]-L-leucinate], the IC50 is 100 to 1000 nM in experiment [1]; below 100 nM in experiment [2]; above 1000 nM in experiment [3]; below 100 nM in experiment [4]; below 100 nM in experiment [5].
With `COc1cc(NCc2ccc3nc(N)nc(N)c3c2C)cc(OC)c1OCCN[C@@H](CC(C)C)C(=O)OC1CCCC1` [Example 8, Cyclopentyl N-[2-(4-{[(2,4-diamino-5-methylquinazolin-6-yl)methyl]amino}-2,6-dimethoxyphenoxy)ethyl]-L-leucinate], the IC50 is 100 to 1000 nM in experiment [1]; below 100 nM in experiment [2]; 100 to 1000 nM in experiment [3]; below 100 nM in experiment [4]; below 100 nM in experiment [5].
`Cc1c(CNc2ccc(CN[C@@H](CC(C)C)C(=O)O)cc2)cnc2nc(N)nc(N)c12` [Example 4, (S)-2-{4-[(2,4-Diamino-5-methyl-pyrido[2,3-d]pyrimidin-6-ylmethyl)-amino]-benzylamino}-4-methyl-pentanoic Acid]: in experiment [3], the IC50 is below 100 nM.
As for `Cc1c(CNc2ccc(C(=O)N[C@@H](CC(C)C)C(=O)OC3CCCC3)cc2)cnc2nc(N)nc(N)c12` [Example 1, (S)-2-{4-[(2,4-Diamino-5-methyl-pyrido[2,3-d]pyrimidin-6-ylmethyl)-amino]-benzoylamino}-4-methyl-pentanoic Acid Cyclopentyl Ester], the IC50 in experiment [1] is below 100 nM; in experiment [2], below 100 nM; in experiment [3], above 1000 nM; in experiment [4], below 100 nM; in experiment [5], below 100 nM.
For the compound `COc1cc(NCc2ccc3nc(N)nc(N)c3c2C)cc(OC)c1OCC(=O)N[C@@H](CC(C)C)C(=O)O` [Example 7, N-[(4-{[(2,4-diamino-5-methylquinazolin-6-yl)methyl]amino}-2,6-dimethoxyphenoxy)acetyl]-L-leucine], in experiment [3], the IC50 is below 100 nM.
Take `COc1cc(NCc2ccc3nc(N)nc(N)c3c2C)cc(OC)c1OCC(=O)N[C@@H](CC(C)C)C(=O)OC(C)(C)C` [Example 6, tert-Butyl N-[(4-{[(2,4-diamino-5-methylquinazolin-6-yl)methyl]amino}-2,6-dimethoxyphenoxy)acetyl]-L-leucinate]: the IC50 was 100 to 1000 nM in experiment [1]; 100 to 1000 nM in experiment [2]; above 1000 nM in experiment [3]; below 100 nM in experiment [4]; below 100 nM in experiment [5].
`COc1cc(NCc2ccc3nc(N)nc(N)c3c2C)cc(OC)c1OCCN[C@@H](CC(C)C)C(=O)O` [Example 9, N-[2-(4-{[(2,4-diamino-5-methylquinazolin-6-yl)methyl]amino}-2,6-dimethoxyphenoxy)ethyl]-L-leucine]: the IC50 in experiment [3] is below 100 nM.
As for `Cc1c(CNc2ccc(CN[C@@H](CC(C)C)C(=O)OC3CCCC3)cc2)cnc2nc(N)nc(N)c12` [Example 3, (S)-2-{4-[(2,4-Diamino-5-methyl-pyrido[2,3-d]pyrimidin-6-ylmethyl)-amino]-benzylamino}-4-methyl-pentanoic Acid Cyclopentyl Ester], the IC50 in experiment [1] was above 1000 nM; in experiment [2], 100 to 1000 nM; in experiment [3], above 1000 nM; in experiment [4], below 100 nM; in experiment [5] it was 100 to 1000 nM.
For the compound `COc1cc(NCc2ccc3nc(N)nc(N)c3c2C)cc(OC)c1OCCN[C@@H](CC(C)C)C(=O)OC(C)(C)C` [Example 10, tert-Butyl N-[2-(4-{[(2,4-diamino-5-methylquinazolin-6-yl)methyl]amino}-2,6-dimethoxyphenoxy)ethyl]-L-leucinate], the IC50 in experiment [1], in experiment [2], in experiment [3], in experiment [4] and in experiment [5] was 100 to 1000 nM each time.
On to `Cc1c(CNc2ccc(C(=O)N[C@@H](CC(C)C)C(=O)O)cc2)cnc2nc(N)nc(N)c12` [Example 2, (S)-2-(4-((2,4-diamino-5-methylpyrido[2,3-a]pyrimidin-6-yl)methylamino)benzamido)-4-methylpentanoic Acid], for which the IC50 in experiment [3] was below 100 nM.
